Our source for the Ki and inhibition values is ChEMBL document CHEMBL2029272, “7-Azabicyclo[2.2.1]heptane as a scaffold for the development of selective sigma-2 (σ2) receptor ligands” (Bioorg Med Chem Lett, 2012).

pKi: −log10 of the molar value. A value given as a limit tells only on which side of the number the result lay.

The nature of test [1]: Displacement of [3H]DTG from sigma2 receptor in […]. The conditions noted are these: pc-12. In kind it is cell-based. A general note: Displacement assays read how much labelled ligand stays bound in the presence of the test substance.
Test [2] is described as follows: Inhibition of NMDA receptor PCP binding site at 10 uM.
Another test addresses D(2) dopamine receptor (Homo sapiens, UniProt P14416). The test can be described thus: Inhibition of D2 dopamine receptor.
For test [3], the target named is T1, Sodium-dependent dopamine transporter (Homo sapiens, UniProt Q01959). The test can be described thus: Inhibition of DAT at 10 uM.
T1 sequence (Q01959 whole entry): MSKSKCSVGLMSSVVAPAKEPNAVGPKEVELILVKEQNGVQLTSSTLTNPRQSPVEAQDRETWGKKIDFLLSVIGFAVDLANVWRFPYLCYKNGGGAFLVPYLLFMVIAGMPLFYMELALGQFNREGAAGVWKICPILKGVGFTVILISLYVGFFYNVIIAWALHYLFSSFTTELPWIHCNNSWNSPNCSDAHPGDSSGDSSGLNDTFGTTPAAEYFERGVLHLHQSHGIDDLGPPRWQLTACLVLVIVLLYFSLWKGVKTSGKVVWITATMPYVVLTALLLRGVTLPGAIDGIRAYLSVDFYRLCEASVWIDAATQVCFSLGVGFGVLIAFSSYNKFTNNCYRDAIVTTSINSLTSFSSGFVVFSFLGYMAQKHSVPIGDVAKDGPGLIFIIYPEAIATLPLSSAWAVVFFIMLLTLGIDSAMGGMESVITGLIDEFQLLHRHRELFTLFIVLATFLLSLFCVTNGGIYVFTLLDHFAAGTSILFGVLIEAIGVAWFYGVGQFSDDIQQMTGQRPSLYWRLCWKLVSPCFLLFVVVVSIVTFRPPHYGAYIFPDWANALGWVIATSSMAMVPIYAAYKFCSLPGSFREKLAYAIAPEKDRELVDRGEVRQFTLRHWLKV
Test [4] addresses Sodium-dependent noradrenaline transporter (Homo sapiens) (UniProt P23975). Put plainly: Inhibition of NET at 10 uM.
Test [5] addresses Sodium-dependent serotonin transporter (Homo sapiens, UniProt P31645). Put plainly: Inhibition of SERT.
The target of test [6] is T2, Histamine H3 receptor (Homo sapiens, UniProt Q9Y5N1). Put plainly: Inhibition of H3 receptor at 10 uM.
T2 sequence (Q9Y5N1 whole entry): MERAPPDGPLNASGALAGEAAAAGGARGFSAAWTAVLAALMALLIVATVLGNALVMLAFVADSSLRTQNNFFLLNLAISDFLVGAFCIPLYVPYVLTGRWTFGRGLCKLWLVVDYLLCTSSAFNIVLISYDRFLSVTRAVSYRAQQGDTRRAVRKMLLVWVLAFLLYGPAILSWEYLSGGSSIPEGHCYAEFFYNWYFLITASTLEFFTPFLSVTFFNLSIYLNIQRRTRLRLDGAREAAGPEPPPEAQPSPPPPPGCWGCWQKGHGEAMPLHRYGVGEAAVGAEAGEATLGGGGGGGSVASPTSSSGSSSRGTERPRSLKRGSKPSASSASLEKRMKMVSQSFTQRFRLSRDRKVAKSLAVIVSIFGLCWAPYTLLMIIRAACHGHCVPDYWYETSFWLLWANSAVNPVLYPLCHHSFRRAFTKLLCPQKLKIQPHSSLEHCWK
Test [7] concerns the target Sigma non-opioid intracellular receptor 1 (Rattus norvegicus, UniProt Q9R0C9). Put plainly: Displacement of [3H](+)-pentazocine from sigma1 receptor in rat brain homogenate. The class given is tissue-based.
In a further test the target is D(1B) dopamine receptor (Homo sapiens, UniProt P21918). Put plainly: Inhibition of D5 dopamine receptor at 10 uM.
Chain of D(1B) dopamine receptor (P21918 whole entry): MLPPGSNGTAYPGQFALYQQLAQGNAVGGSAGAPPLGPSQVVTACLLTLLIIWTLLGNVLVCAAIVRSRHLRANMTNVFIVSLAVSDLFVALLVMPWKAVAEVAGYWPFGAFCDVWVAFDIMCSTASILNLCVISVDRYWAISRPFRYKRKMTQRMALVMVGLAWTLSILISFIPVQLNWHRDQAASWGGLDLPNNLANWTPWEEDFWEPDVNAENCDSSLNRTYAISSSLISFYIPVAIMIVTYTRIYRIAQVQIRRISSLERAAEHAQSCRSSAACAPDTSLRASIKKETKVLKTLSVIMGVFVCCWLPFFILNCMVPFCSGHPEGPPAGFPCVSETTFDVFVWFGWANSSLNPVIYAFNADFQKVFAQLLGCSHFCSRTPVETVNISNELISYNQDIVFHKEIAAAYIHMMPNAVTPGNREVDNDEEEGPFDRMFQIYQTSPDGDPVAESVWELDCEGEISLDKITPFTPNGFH
The subject of a further test is PC-12. Put plainly: Displacement of [3H]DTG from sigma2 receptor in […] at 10 uM. In kind it is cell-based.
Test [8] addresses T2, Histamine H3 receptor. The test can be described thus: Inhibition of H3 receptor.
For test [9], the target named is T1, Sodium-dependent dopamine transporter. The test can be described thus: Inhibition of DAT.

One may read the pKi as −log10 of the Ki, conventionally taken in molar units. Read a high pKi as a small Ki. One may read the inhibition as the share of the control response that was lost under treatment.

Chain of Sigma non-opioid intracellular receptor 1 (Q9R0C9 whole entry): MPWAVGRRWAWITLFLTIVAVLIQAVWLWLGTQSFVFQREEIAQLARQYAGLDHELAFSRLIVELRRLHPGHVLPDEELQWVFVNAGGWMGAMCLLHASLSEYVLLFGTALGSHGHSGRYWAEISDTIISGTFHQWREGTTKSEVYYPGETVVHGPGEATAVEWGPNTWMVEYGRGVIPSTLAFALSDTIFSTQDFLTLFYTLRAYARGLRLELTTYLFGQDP
Chain of Sodium-dependent noradrenaline transporter (Homo sapiens) (P23975 whole entry): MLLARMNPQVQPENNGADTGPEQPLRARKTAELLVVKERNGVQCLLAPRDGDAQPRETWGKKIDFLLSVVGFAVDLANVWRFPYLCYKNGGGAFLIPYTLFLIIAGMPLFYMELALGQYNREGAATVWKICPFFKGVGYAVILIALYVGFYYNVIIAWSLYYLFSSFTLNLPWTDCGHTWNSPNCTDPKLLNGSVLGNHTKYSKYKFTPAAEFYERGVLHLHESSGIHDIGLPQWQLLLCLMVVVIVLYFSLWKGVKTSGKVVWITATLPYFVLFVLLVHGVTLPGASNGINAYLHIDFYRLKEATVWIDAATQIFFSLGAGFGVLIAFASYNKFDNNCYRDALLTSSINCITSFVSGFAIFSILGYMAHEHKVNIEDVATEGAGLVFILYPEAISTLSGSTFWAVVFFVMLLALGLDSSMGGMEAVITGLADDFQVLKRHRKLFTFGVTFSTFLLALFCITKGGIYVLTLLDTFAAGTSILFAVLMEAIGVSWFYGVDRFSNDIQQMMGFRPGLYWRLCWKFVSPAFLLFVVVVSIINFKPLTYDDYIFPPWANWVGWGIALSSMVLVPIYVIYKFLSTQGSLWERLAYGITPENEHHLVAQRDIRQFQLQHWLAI
Chain of Sodium-dependent serotonin transporter (P31645 whole entry): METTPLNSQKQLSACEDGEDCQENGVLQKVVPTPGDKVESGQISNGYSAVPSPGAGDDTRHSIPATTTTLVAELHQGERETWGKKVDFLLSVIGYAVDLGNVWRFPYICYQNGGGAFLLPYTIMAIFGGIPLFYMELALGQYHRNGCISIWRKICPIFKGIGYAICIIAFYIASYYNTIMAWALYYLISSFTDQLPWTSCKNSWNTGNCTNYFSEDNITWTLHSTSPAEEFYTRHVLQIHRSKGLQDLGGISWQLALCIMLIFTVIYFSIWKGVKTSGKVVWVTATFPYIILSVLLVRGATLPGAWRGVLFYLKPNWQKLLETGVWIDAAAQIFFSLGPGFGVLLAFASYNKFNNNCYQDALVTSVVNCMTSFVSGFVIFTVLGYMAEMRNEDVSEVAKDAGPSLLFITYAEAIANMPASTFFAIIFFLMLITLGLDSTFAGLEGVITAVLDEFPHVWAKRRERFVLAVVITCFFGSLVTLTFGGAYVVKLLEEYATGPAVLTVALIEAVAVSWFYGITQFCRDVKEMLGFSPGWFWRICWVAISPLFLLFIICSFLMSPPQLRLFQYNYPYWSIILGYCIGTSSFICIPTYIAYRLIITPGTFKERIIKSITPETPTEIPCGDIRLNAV
Chain of D(2) dopamine receptor (P14416 whole entry): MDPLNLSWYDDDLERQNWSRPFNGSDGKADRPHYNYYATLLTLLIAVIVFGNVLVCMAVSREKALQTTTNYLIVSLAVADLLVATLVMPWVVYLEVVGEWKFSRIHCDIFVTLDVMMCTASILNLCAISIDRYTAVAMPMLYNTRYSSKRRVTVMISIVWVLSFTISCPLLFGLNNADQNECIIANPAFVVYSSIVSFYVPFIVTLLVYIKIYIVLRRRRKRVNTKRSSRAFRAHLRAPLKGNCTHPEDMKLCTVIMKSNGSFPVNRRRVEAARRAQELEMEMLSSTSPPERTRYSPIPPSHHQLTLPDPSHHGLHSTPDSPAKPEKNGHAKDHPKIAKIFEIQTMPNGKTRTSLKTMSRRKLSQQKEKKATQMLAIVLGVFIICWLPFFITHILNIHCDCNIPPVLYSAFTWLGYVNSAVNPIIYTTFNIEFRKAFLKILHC

Turning to `c1ccc(CN2C3CCC2CC3)cc1`, the pKi is 6.40 in test [1], below 5.00 at D(2) dopamine receptor and below 5.00 in test [5]. The inhibition in test [2], in test [3] and in test [4] was below 50% throughout.
Regarding `c1cncc(CN2C3CCC2CC3)c1`, the values for the pKi (in [1]; on D(2) dopamine receptor) were 5.20 and below 5.00, respectively. The inhibition (in [2]; on Histamine H3 receptor [6]; in test [3]; in test [4]) was below 50% each time.
For `Fc1cccc(CCCN2C3CCC2CC3)c1`, the pKi in test [1] was 7.92; on D(2) dopamine receptor, below 5.00; in test [7], 6.92. In addition, the inhibition (in [2]; at Histamine H3 receptor [6]; in [3]; in test [4]) was below 50% each time.
Regarding `c1ccc(CCN2C3CCC2CC3)nc1`, the values for the pKi (in [1]; on D(2) dopamine receptor; in test [7]) were 6.29, below 5.00 and 5.42, respectively. Also, the inhibition (in test [2]; at Histamine H3 receptor [6]; in [3]; in test [4]) was below 50% in each case.
Consider `c1ccc(CCN2CCCC2)nc1`, for which the pKi is 5.45 in test [1], below 5.00 on D(2) dopamine receptor and below 5.00 in test [5]. Further, the inhibition in [2], in [3] and in test [4] was below 50% throughout.
Take `c1ccc(CN2CCCC2)cc1`: the pKi was 6.07 in [1] and below 5.00 in [5]. The inhibition (in [2]; in [3]; in [4]; against D(1B) dopamine receptor) was below 50% in each case.
For `c1cncc(CN2CCCC2)c1`, the inhibition (in test [2]; with PC-12; in [3]; in [4]) was below 50% in each case. The same molecule gave a pKi in test [5] below 5.00.
For `c1ccc(CCN2C3CCC2CC3)cc1`, the pKi is 6.88 in [1], below 6.00 at D(2) dopamine receptor, 6.56 in [7] and 5.11 at Histamine H3 receptor [8]. Moreover, the inhibition in [2], in test [3] and in test [4] was below 50% each time.
For the molecule `COc1ccc(CN2C3CCC2CC3)cc1OC`, the pKi in test [1] is 7.37; at D(2) dopamine receptor, below 5.00; in test [5] it was below 5.00. The inhibition (in test [2]; at Histamine H3 receptor [6]; in [3]; in test [4]) was below 50% in each case.
Turning to `Fc1cccc(CN2CCCC2)c1`, the pKi was 5.79 in [1] and below 5.00 in [5]. Further, the inhibition in [2], in [3] and in [4] was below 50% throughout.
For the molecule `c1ccc(CCN2CCCC2)cc1`, the pKi in [1] was 6.18; in test [9], 5.56; in test [5], below 5.00. For the same molecule, the inhibition in [2] and in test [4] was below 50% throughout.
With `Fc1cccc(CN2C3CCC2CC3)c1`, the pKi in test [1] is 6.60; on D(2) dopamine receptor it was below 5.00; in test [5], below 5.00. In addition, the inhibition (in [2]; against Histamine H3 receptor [6]; in test [3]; in test [4]) was below 50% in each case.
For `Fc1cccc(CCN2CCCC2)c1`, the pKi in test [1] is 6.61; on D(2) dopamine receptor it was below 5.00; in [9], 5.64; in [5] it was below 5.00. Also, the inhibition in [2] and in test [4] was below 50% each time.
Consider `COc1ccc(CN2CCCC2)cc1OC`, for which the negative-log Ki (pKi) is 6.18 in [1] and below 5.00 in [5]. The inhibition in test [2], in test [3] and in test [4] was below 50% in each case.
As to `Fc1cccc(CCCN2CCCC2)c1`, the pKi is 7.41 in test [1], 5.00 at D(2) dopamine receptor, 5.48 in test [9] and 5.36 in test [5]. Further, the inhibition in test [2] and in test [4] was below 50% in each case.
Turning to `Fc1cccc(CCN2C3CCC2CC3)c1`, the figures for the pKi (in test [1]; on D(2) dopamine receptor; in [7]) were 7.53, below 5.00 and 6.99, respectively. In addition, the inhibition (in test [2]; against Histamine H3 receptor [6]; in [3]; in test [4]) was below 50% throughout.
